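Tested at 5 concentrations; 48 h exposure; 96-well plates; endpoints linearly interpolated, else capped at highest concentration. GI50 is the concentration that inhibits growth by half. TGI is the concentration that stops growth completely.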
Legend:
Assay in all cases: NCI-60 cell line screen, 48 h
HL-60(TB) leukemia = test system: HL-60(TB) leukemia
OVCAR-4 ovarian = test system: OVCAR-4 ovarian
OVCAR-8 ovarian = test system: OVCAR-8 ovarian
LOX IMVI melanoma = test system: LOX IMVI melanoma
A549 NSCLC = test system: A549 NSCLC
DU-145 prostate = test system: DU-145 prostate
OVCAR-5 ovarian = test system: OVCAR-5 ovarian
HCT-15 colon = test system: HCT-15 colon
BT-549 breast = test system: BT-549 breast
SF-539 CNS = test system: SF-539 CNS
UACC-62 melanoma = test system: UACC-62 melanoma
K-562 leukemia = test system: K-562 leukemia
SF-295 CNS = test system: SF-295 CNS
CAKI-1 renal = test system: CAKI-1 renal
OVCAR-3 ovarian = test system: OVCAR-3 ovarian
ACHN renal = test system: ACHN renal
A498 renal = test system: A498 renal
SN12C renal = test system: SN12C renal
HT29 colon = test system: HT29 colon
RPMI-8226 leukemia = test system: RPMI-8226 leukemia
SK-OV-3 ovarian = test system: SK-OV-3 ovarian
MOLT-4 leukemia = test system: MOLT-4 leukemia
KM12 colon = test system: KM12 colon
SR leukemia = test system: SR leukemia
SK-MEL-5 melanoma = test system: SK-MEL-5 melanoma
HOP-92 NSCLC = test system: HOP-92 NSCLC
PC-3 prostate = test system: PC-3 prostate
HOP-62 NSCLC = test system: HOP-62 NSCLC
MALME-3M melanoma = test system: MALME-3M melanoma

With `O=C(CSc1nc2sc3c(c2c(=O)n1-c1ccc(Cl)cc1)CCCC3)NNC(=O)Nc1cccc(C(F)(F)F)c1` the GI50 (HL-60(TB) leukemia) was 2.39 µM, the TGI (HL-60(TB) leukemia) was 6.57 µM and the GI50 (OVCAR-4 ovarian) was 2.44 µM. For the same compound, the TGI (OVCAR-4 ovarian) was 6.78 µM, the GI50 (OVCAR-8 ovarian) was 2.85 µM and the TGI (OVCAR-8 ovarian) was 9.3 µM. For the same compound, the GI50 (LOX IMVI melanoma) was 1.68 µM, the TGI (LOX IMVI melanoma) was 3.33 µM and the GI50 (A549 NSCLC) was 2.97 µM. The TGI (A549 NSCLC) was 12.3 µM, the GI50 (DU-145 prostate) was 4.12 µM and the TGI (DU-145 prostate) was greater than 100 µM. It also gave a GI50 (OVCAR-5 ovarian) of 4.21 µM, a TGI (OVCAR-5 ovarian) of 31 µM and a GI50 (HCT-15 colon) of 3.05 µM. The TGI (HCT-15 colon) was 11.5 µM, the GI50 (BT-549 breast) was 2.02 µM and the TGI (BT-549 breast) was 5.9 µM. For the same compound, the GI50 (SF-539 CNS) was 3.46 µM, the TGI (SF-539 CNS) was 11.9 µM and the GI50 (UACC-62 melanoma) was 2.38 µM. It also gave a TGI (UACC-62 melanoma) of 7.4 µM, a GI50 (K-562 leukemia) of 2.64 µM and a TGI (K-562 leukemia) greater than 100 µM. The GI50 (SF-295 CNS) was 2.28 µM, the TGI (SF-295 CNS) was 6.16 µM and the GI50 (CAKI-1 renal) was 2.31 µM. It also gave a TGI (CAKI-1 renal) of 7.14 µM, a GI50 (OVCAR-3 ovarian) of 3.15 µM and a TGI (OVCAR-3 ovarian) of 11.5 µM. It also gave a GI50 (ACHN renal) of 3.67 µM, a TGI (ACHN renal) of 14.9 µM and a GI50 (A498 renal) of 1.96 µM. The TGI (A498 renal) was 4.85 µM, the GI50 (SN12C renal) was 2.83 µM and the TGI (SN12C renal) was 8.44 µM. It also gave a GI50 (HT29 colon) of 2.33 µM, a TGI (HT29 colon) of 5.85 µM and a GI50 (RPMI-8226 leukemia) of 2.87 µM. The TGI (RPMI-8226 leukemia) was greater than 100 µM, the GI50 (SK-OV-3 ovarian) was 2.13 µM and the TGI (SK-OV-3 ovarian) was 6.06 µM. The GI50 (MOLT-4 leukemia) was 2.9 µM, the TGI (MOLT-4 leukemia) was greater than 100 µM and the GI50 (KM12 colon) was 3.75 µM. For the same compound, the TGI (KM12 colon) was 23.5 µM, the GI50 (SR leukemia) was 2.74 µM and the TGI (SR leukemia) was greater than 100 µM. For the same compound, the GI50 (SK-MEL-5 melanoma) was 2.88 µM, the TGI (SK-MEL-5 melanoma) was 8.81 µM and the GI50 (HOP-92 NSCLC) was 1.66 µM. For the same compound, the TGI (HOP-92 NSCLC) was 4.2 µM, the GI50 (PC-3 prostate) was 2.5 µM and the GI50 (HOP-62 NSCLC) was 3.3 µM. For the same compound, the TGI (HOP-62 NSCLC) was 13.5 µM, the GI50 (MALME-3M melanoma) was 2.06 µM and the TGI (MALME-3M melanoma) was 5.23 µM.

Source: PubChem BioAssay (NCI)
